Values quoted from earlier work, collected in US11747352B2 (Concordia University, Inc., priority 2017, dated 2023).
Where two headings read alike, the source gives them in different places.

Assays:
[1] = cited from earlier work
[2] = cited from earlier work; remark: listed apart in the source

Structure (SMILES): CN(C)CCc1c[nH]c2ccc(C[C@H]3COC(=O)N3)cc12 [Zolmirripran]
- ORAL BIOAVAILABILITY ([1]; Table of Exemplary Drugs, CYP1A2): ~40%

Structure (SMILES): CCCCNC(=O)NS(=O)(=O)c1ccc(C)cc1 [Tolbutamide]
- HALF LIFE ([2]; Table CYP2C9): 4.5 to 6.5 h

Structure (SMILES): Cc1ccnc2c1NC(=O)c1cccnc1N2C1CC1 [Nevirapine]
- ORAL BIOAVAILABILITY ([1]; Table CYP3A4): 80-94% ^

Structure (SMILES): CCN[C@@H](C)Cc1cccc(C(F)(F)F)c1 [Dexfenfluramine]
- HALF LIFE ([2]; in vivo): 17 to 20 h

Structure (SMILES): COc1ccc(C(=O)Nc2ccccc2CCC2CCCCN2C)cc1 (stereo not shown) [Encainide]
- HALF LIFE ([2]; Table CYP2D6): 11.3 h
- ORAL BIOAVAILABILITY ([1]; Table CYP2D6): 25-90% ^

Structure (SMILES): Cn1c(=O)c2[nH]cnc2n(C)c1=O [Theophylline]
- HALF LIFE ([2]; Table CYP1A2): 1.5 to 9.8 h

Structure (SMILES): Cc1cc(-c2ccccc2)nnc1NCCN1CCOCC1 [Minaprine]
- HALF LIFE ([2]; Table CYP2D6): 2 to 2.5 h

Structure (SMILES): CO[C@H]1C[C@@H]2CC[C@@H](C)[C@@](O)(O2)C(=O)C(=O)N2CCCC[C@H]2C(=O)O[C@H]([C@H](C)C[C@@H]2CC[C@@H](O)[C@H](OC)C2)CC(=O)[C@H](C)/C=C(\C)[C@@H](O)[C@@H](OC)C(=O)[C@H](C)C[C@H](C)/C=C/C=C/C=C/1C [Sirolimus]
- ORAL BIOAVAILABILITY ([1]; Table CYP3A4): 14-27% ^

Structure (SMILES): CN(C/C=C/C#CC(C)(C)C)Cc1cccc2ccccc12 [Terbinafine]
- HALF LIFE ([2]; Table CYP2C9): 22 to 26 h

Structure (SMILES): COc1cccc(C2(O)CCCCC2CN(C)C)c1 (stereo not shown) [Tramadol]
- HALF LIFE ([2]; in vivo): 5.5 to 6.7 h

Structure (SMILES): CCCCC1=NC2(CCCC2)C(=O)N1Cc1ccc(-c2ccccc2-c2nnn[nH]2)cc1 [Irbesartan]
- HALF LIFE ([2]; Table CYP2C9): 11 to 15 h
- ORAL BIOAVAILABILITY ([1]; Table CYP2C9): 60-80% ^

Structure (SMILES): C#C[C@]1(O)CC[C@H]2[C@@H]3CCc4cc(O)ccc4[C@H]3CC[C@@]21C [Ethinyl Estradiol]
- ORAL BIOAVAILABILITY ([1]; Table CYP3A4): 38-48% ^

Structure (SMILES): CNCCC(Oc1ccc(C(F)(F)F)cc1)c1ccccc1 (stereo not shown) [Fluoxetine]
- HALF LIFE ([2]; Table CYP2C9): 96 to 140 h
- HALF LIFE ([2]; Table CYP2D6): 96 to 140 h
- ORAL BIOAVAILABILITY ([1]; Table CYP2C9): 60-80% ^
- ORAL BIOAVAILABILITY ([1]; Table CYP2D6): 60-80% ^

Structure (SMILES): COc1ccc2c(c1)[C@]13CCCC[C@@H]1[C@H](C2)N(C)CC3 [Dextromethorphan]
- HALF LIFE ([2]; in vivo): 1.4 to 3.9 h

Structure (SMILES): CC(c1cc2ccccc2s1)N(O)C(N)=O (stereo not shown) [Zileuton]
- HALF LIFE ([2]; Table CYP1A2): 2.5 to 3.2 h

Structure (SMILES): CC(N)Cc1ccccc1 (stereo not shown) [Amphetamine]
- ORAL BIOAVAILABILITY ([1]; in vivo, po): 100%

Structure (SMILES): CCCC1O[C@@H]2C[C@H]3[C@@H]4CCC5=CC(=O)C=C[C@]5(C)[C@H]4[C@@H](O)C[C@]3(C)[C@]2(C(=O)CO)O1 (stereo partly shown) [Budesonide]
- ORAL BIOAVAILABILITY ([1]; Table CYP3A4): 9-21%^

Structure (SMILES): COc1ccc2c3c1O[C@H]1[C@@H](O)C=C[C@H]4[C@@H](C2)N(C)CC[C@@]341 [Codeine]
- HALF LIFE ([2]; in vivo): 2.5 to 3 h

Structure (SMILES): CCCc1nc(C)c2c(=O)[nH]c(-c3cc(S(=O)(=O)N4CCN(CC)CC4)ccc3OCC)nn12 [Vardenafil]
- ORAL BIOAVAILABILITY ([1]; Table CYP3A4): 15-44% ^

Structure (SMILES): OCCN1CCN(CCCN2c3ccccc3Sc3ccc(Cl)cc32)CC1 [Perphenazine]
- HALF LIFE ([2]; Table CYP2D6): 9 to 12 h

Structure (SMILES): CN(C)CCCN1c2ccccc2CCc2ccccc21 [Imipramine]
- ORAL BIOAVAILABILITY ([1]; Table CYP2D6): 94-96% ^

Structure (SMILES): O=C(CCCN1CCC(O)(c2ccc(Cl)cc2)CC1)c1ccc(F)cc1 [Haloperidol]
- HALF LIFE ([2]; Table CYP1A2): 14 to 37 h
- HALF LIFE ([2]; Table CYP2D6): 14 to 37 h

Structure (SMILES): O=C(O)Cc1ccccc1Nc1c(Cl)cccc1Cl [Diclofenac]
- HALF LIFE ([2]; Table CYP2C9): 1.9 to 2.2 h

Structure (SMILES): CN[C@@H](C)Cc1ccccc1 [Dextromethamphetamine]
- HALF LIFE ([2]; Table CYP2D6): 12 h

Structure (SMILES): CCOC(=O)C1=C(C)NC(C)=C(C(=O)OC)C1c1cccc(Cl)c1Cl (stereo not shown) [Felodipine]
- ORAL BIOAVAILABILITY ([1]; Table CYP3A4): 13-20% ^

Structure (SMILES): COc1ccc2c3c1O[C@H]1C(=O)CC[C@@]4(O)[C@@H](C2)N(C)CC[C@]314 [Oxycodone]
- ORAL BIOAVAILABILITY ([1]; Table CYP2D6): 60-87% ^
- ORAL BIOAVAILABILITY ([1]; Table CYP3A4): 60-87% ^

Structure (SMILES): COc1ccc2[nH]cc(CCNC(C)=O)c2c1 [Melatonin]
- HALF LIFE ([2]; Table CYP1A2): 0.583 to 0.833 h

Structure (SMILES): CCC1(c2ccccc2)C(=O)NC(=O)N(C)C1=O (stereo not shown) [Methylphenobarbital]
- HALF-LIFE ([2]; in vivo): 11 to 67 h

Structure (SMILES): CCN(CC)CCNC(=O)c1cc(Cl)c(N)cc1OC [Metoclopramide]
- HALF LIFE ([2]; Table CYP2D6): 5 to 6 h

Structure (SMILES): COC(=O)N[C@H](C(=O)N[C@@H](Cc1ccccc1)[C@@H](O)CN(Cc1ccc(-c2ccccn2)cc1)NC(=O)[C@@H](NC(=O)OC)C(C)(C)C)C(C)(C)C [Atazanavir]
- ORAL BIOAVAILABILITY ([1]; Table CYP3A4): 60-68% ^

Structure (SMILES): C=C[C@H]1C[N@@]2CC[C@H]1C[C@H]2[C@H](O)c1ccnc2ccc(OC)cc12 [Quinine]
- ORAL BIOAVAILABILITY ([1]; Table CYP3A4): 76-88% ^

Structure (SMILES): COc1ccc2c(c1)N(C[C@H](C)CN(C)C)c1ccccc1S2 [Levomepromazine]
- ORAL BIOAVAILABILITY ([1]; Table CYP2D6): 50-60% ^

Structure (SMILES): CC[C@@H](c1cccc(O)c1)[C@@H](C)CN(C)C [Tapentadol]
- HALF LIFE ([2]; Table CYP2C9): 4 to 5 h
- HALF LIFE ([2]; Table CYP2D6): 4 to 5 h

Structure (SMILES): COc1ccc2c3c1O[C@H]1C(=O)CC[C@H]4[C@@H](C2)N(C)CC[C@]314 [Hydrocodone]
- HALF LIFE ([2]; in vivo): 7 to 9 h

Structure (SMILES): CCN1CCC[C@H]1CNC(=O)c1c(OC)ccc(Br)c1OC [Remoxipride]
- HALF LIFE ([2]; Table CYP2D6): 3 to 6 h

Structure (SMILES): COC(=O)C1=C(C)NC(C)=C(C(=O)OC(C)C)C1c1cccc2nonc12 (stereo not shown) [Isradipine]
- ORAL BIOAVAILABILITY ([1]; Table CYP3A4, CR): CR: 15-24% ^
- ORAL BIOAVAILABILITY ([1]; Table CYP3A4, IR): IR: 90-95% ^

Structure (SMILES): COc1ccc2cccc(CCNC(C)=O)c2c1 [Agomelatine]
- HALF LIFE ([2]; Table CYP1A2): 1 to 2 h
